Data: publication PMC3265476, “Functional Characterization of MODY2 Mutations Highlights the Importance of the Fine-Tuning of Glucokinase and Its Role in Glucose Sensing” (PLoS ONE, 2012)
Numbering of substitutions follows the chain as printed.

Experiments:
Test in all cases: Inhibition of glucokinase activity by palmitoyl-CoA, Dixon plots
Format in all cases: biochemical
GST-GK(p.Ala449Thr) = molecular target: T1, GST-GK(p.Ala449Thr) (Homo sapiens, UniProt P35557, A449T)
T1 construct: made in house; host or cells: E. coli
T1 sequence (P35557 1-465 A449T): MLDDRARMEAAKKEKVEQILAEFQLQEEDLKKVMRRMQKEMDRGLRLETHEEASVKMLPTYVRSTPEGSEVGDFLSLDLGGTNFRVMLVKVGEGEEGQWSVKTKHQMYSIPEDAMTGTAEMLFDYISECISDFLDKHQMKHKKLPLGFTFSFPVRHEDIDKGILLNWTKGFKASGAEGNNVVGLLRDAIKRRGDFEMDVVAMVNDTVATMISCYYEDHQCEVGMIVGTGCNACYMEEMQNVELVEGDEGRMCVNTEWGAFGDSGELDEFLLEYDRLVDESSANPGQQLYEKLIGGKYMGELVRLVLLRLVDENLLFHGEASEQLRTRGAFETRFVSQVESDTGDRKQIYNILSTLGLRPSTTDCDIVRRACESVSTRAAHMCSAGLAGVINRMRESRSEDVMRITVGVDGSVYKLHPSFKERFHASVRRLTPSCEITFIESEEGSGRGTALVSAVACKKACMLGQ
Protocol: (§1) Glucokinase activity was measured spectrophotometrically on a spectrophotometer Uviconxl (Secoman), using an NADP^+-coupled assay with glucose-6-phosphate dehydrogenase, as described previously. The final reaction mixture contained 100 mM Tris pH 7.4, 150 mM KCl, 1 mM MgCl2, 1.4 mM ß-mercaptoethanol, 0.1% BSA, 5 mM ATP-MgCl2, 1 mM NADP^+, and 1 U/ml glucose-6-phosphate dehydrogenase. Determination of kinetic parameters and thermal stability tests were performed as in [20]. […] Inhibition by NAG and MH was determined under standard assay conditions with 50 nM glucokinase. The inhibition by palmitoylCoA was determined in reaction mixtures containing 25 mM Hepes pH 7.1; 25 mM KCl; 1 mM NADP, 1 mM ATP-MgCl2; 2.5 mM MgCl2; 5 mM ß-mercaptoethanol, 1 U/ml glucose-6-phosphate dehydrogenase and 61 nM glucokinase. Due to the low Kcat value of mutant GST-GK(pAla449Thr), the amount of protein used in inhibition assays was 180 nM to get sufficient activity to allow for accurate determination of the inhibitor effect. In these conditions, GK activity (U/mg of GST-GK(pAla449Thr)) in the absence of inhibitors was 1.3±0.08, 1.1±0.06 and 0.9±0.05 at 2, 1.5 and 1 mM of glucose, respectively for NAG and MH assays and 0.5±0.05, 0.33±0.03 and 0.27±0.03 at 2, 1.5 and 1 mM glucose, respectively for palmitoyl-CoA assay.

GST-GK(p.Gly223Ser) = molecular target: T2, GST-GK(p.Gly223Ser) (Homo sapiens, UniProt P35557, G223S); conditions: glucose 12.5, 25 and 50 mM; read-out: I50 for palmitoyl-CoA
T2 construct: made in house; host or cells: E. coli
T2 sequence (P35557 1-465 G223S): T1 sequence (P35557 1-465 A449T) with G223S, T449A
Protocol: as §1

Wild-type GST-GK = molecular target: T3, Wild-type GST-GK (Homo sapiens, UniProt P35557); conditions: glucose 2, 5 and 8 mM; 61 nM glucokinase; read-out: I50 for palmitoyl-CoA
T3 construct: made in house; host or cells: E. coli
T3 sequence (P35557 1-465): T1 sequence (P35557 1-465 A449T) with T449A
Protocol: as §1

decrease of I50 for palmitoyl-CoA vs wild type (GST-GK(p.Ala449Thr)): ~26%
IC50 (GST-GK(p.Ala449Thr); glucose 1, 1.5 and 2 mM, 180 nM protein, read-out: I50 for palmitoyl-CoA): 2.24 ± 0.14 µM
IC50 (GST-GK(p.Gly223Ser)): 1.42 ± 0.13 µM
IC50 (Wild-type GST-GK): 3.06 ± 0.27 µM
Compound: CCCCCCCCCCCCCCCC(=O)SCCNC(=O)CCNC(=O)[C@H](O)C(C)(C)COP(=O)(O)OP(=O)(O)OC[C@H]1O[C@@H](n2cnc3c(N)ncnc32)[C@H](O)[C@@H]1OP(=O)(O)O [palmitoyl-CoA]
